Patent US20210230213A1, “ARAMCHOL SALTS” (GALMED RESEARCH AND DEVELOPMENT LTD., priority 2013, published 2021)

Assay: Twice daily administration for 10 days of Aramchol and Aramchol meglumine in humans (Example 9)
Format: in vivo
Conditions: free acid 300 mg, meglumine salt 383 mg
Description: 300 mg aramchol free acid were administered to human subjects twice daily, and 383 mg aramchol meglumine salt were administered to human subjects twice daily, as detailed in FIG. 13.

Substance: 3β-arachidylamido-7α,12α-dihydroxy-5β-cholan-24-oic acid N-methylglucamine salt
- AUCss 0-12 h (BID for 10 days): 109 µg·h/mL
- Cavg (BID for 10 days, listed as 3β-arachidylamido-7α,12α-dihydroxy-5β-cholan-24-oic acid-meglumine salt): 8,318 ng/ml
- Cavg (BID for 10 days, listed as Aramchol Meglumine): 8318 ng/mL
- Cavg (BID for 10 days, listed as aramchol meglumine salt): 8318 ng/mL
- AUCss (BID): 109,000 ng*h/mL
